Assay: Thermal tail-flick test on rats
Type: in vivo, rat
Settings: 3 mg/kg injection in saline, against placebo, TFL measured approximately every hour
Method: Therapeutic Solutions: The compound 2 90 mg was dissolved in 30 ml of saline solution and the injection volume was calculated as 1 ml/kg to achieve 3 mg/kg of compound of Formula 31. The placebo solution was identical except it is devoid of any drug.
Tail-Flick Test: The experimentation was started by selecting ten at least 90-100 days old and were all weighed to determine the volume of experimental and placebo solution. Each rat, was habituated for three days to handling and the tail flick procedure and without heat exposure. In the administration, each animal was only used for one day of experiments, and given only one dose of drug, or placebo solution. The technique of D'Amour and Smith (1941) relies on latency to flick of the tail from onset of a focused beam of intense light. This method, employed for decades, has now been augmented by the ability to monitor temperature at the site of exposure. Columbus Instruments model TF-2 model was warmed, on the day of the experiment, for at least 30 minutes. The intensity of the lamp was adjusted so that baseline tail-flick latency for rats is equal to approximately 2.0 seconds. The intensity was set to 40% as this was determined to be the ideal intensity from the intensity response curve. […] The baseline value was determined for each animal prior to injection. The TFL was measured approximately every hour. The semilog means were calculated.

Compound: CC12CC3CC(C)(C1)CC(NC(=O)C1(CN)CCCCC1)(C3)C2 [Formula 2]
- time course of antinociceptive effect in the thermal tail flick test (FIG. 1): antinociceptive effect

— US20110306600A1, “NOVEL THERAPEUTIC COMPOUNDS” (Grunenthal GmbH, priority 2010, published 2011)
